Measurements reported in patent publication US8440842B2, “Antimicrobial compounds, their synthesis and their use for treatment of mammalian infections” (Leibniz-Institut fuer Naturstoff-Forschung und …, priority 2007, dated 2013).
≈ marks a conversion by molar mass, not a printed value. Where two headings read alike, the source gives them in different places.

What was measured:
M. fortuitum B = assay: MIC by broth micro dilution method in Mueller-Hinton broth (NCCLS); assay type: cell-based; details: Mycolicibacterium fortuitum, read-out: M. fortuitum MIC
Procedure: (§1) Determination of the in vitro inhibitory activity of the compounds of the invention against mycobacteria.
(§2) The antibacterial activities of the compounds against Mycobacterium smegmatis SG 987, M. aurum SB66, M. vaccae IMET 10670 and M. fortuitum B were tested by determination of minimal inhibitory concentrations (MIC) by the broth micro dilution method in Mueller-Hinton broth (Difco) according to the NCCLS guidelines [National Committee for Clinical Laboratory Standards: Methods for dilution antimicrobial susceptibility tests for bacteria that grow aerobically; 5th Ed.; Villanova, Ed.; Approved standard Document M7-A5. NCCLS, (2000)].

M. vaccae IMET 10670 = assay: as above; assay type: cell-based; details: Mycolicibacterium vaccae
Procedure: as §1, §2

[1] = test system: Mycobacterium smegmatis SG 987; assay: as above; assay type: cell-based; details: Mycolicibacterium smegmatis
Procedure: as §1, §2

M. tuberculosis H37Rv [2] = assay: resazurin reduction assay (MIC96), Alamar Blue method; assay type: cell-based; details: Mycobacterium tuberculosis, read-out: minimal inhibitory concentrations (MIC) M. tuberculosis H37Rv
Procedure: Activity against M. tuberculosis H37Rv was determined by the resazurin reduction assay (MIC96) too. The method was described in detail in: P. Quillardet, O. Huisman, R. D'Ari, M. Hofnung, Proc. Natl. Acad. Sci. USA, 1982, 79, 5971-5; J. C. Palomino, A. Martin, M. Camacho, H. Guerra, J. Swings, F. Portaels, Antimicrob. Agents Chemother., 2002, 46, 2720-2.

M. tuberculosis H37Rv [3] = assay: MIC and MBC, classical method (liquid Shkolnikova medium, Lowenstein-Jensen medium); assay type: cell-based; details: Mycobacterium tuberculosis; for MIC: 336 h
[4] = broth micro dilution, Mueller-Hinton broth
[5] = IMET10670, broth micro dilution, Mueller-Hinton broth, read-out: M. vaccae MIC
[6] = SG987, broth micro dilution, Mueller-Hinton broth, read-out: M. smegmatis MIC
[7] = strain H37Rv, liquid Shkolnikova medium, 14 days at 37° C., read-out: MIC
[8] = strain H37Rv, solid drug free Lowenstein-Jensen medium, 21-28 days, read-out: MBC

SMILES	MIC (M. fortuitum B)	MIC (M. vaccae IMET 10670; IMET10670, read-out: M. vaccae MIC)	MIC ([1]; SG987, read-out: M. smegmatis MIC)	melting point	MIC (M. fortuitum B; [4])	MIC (M. vaccae IMET 10670; [5])	MIC [1, 6]	MIC (M. tuberculosis H37Rv [2])	MBC (M. tuberculosis H37Rv [3]; H37RV)	MIC (M. tuberculosis H37Rv [3]; H37RV)	MIC (M. tuberculosis H37Rv [3]; [7])	MBC (M. tuberculosis H37Rv [3]; [8])
O=c1nc(N2CCN(c3ccc(Cl)cc3)CC2)sc2c([N+](=O)[O-])cc([N+](=O)[O-])cc12 [Compound 1, 2-[4-(4-Chlorophenyl)piperazin-1-yl]-6,8-dinitro-4H-1,3-benzothiazin-4-one]	780 ng/mL (≈ 1740 nM)	6.2 ng/mL (≈ 13.8 nM)	780 ng/mL (≈ 1740 nM)	279 to 281 °C								
Cc1ccc(Cl)cc1N1CCN(c2nc(=O)c3cc(C(F)(F)F)cc([N+](=O)[O-])c3s2)CC1 [Compound 2, 2-[4-(5-chloro-2-methylphenyl)piperazin-1-yl]-8-nitro-6-(trifluoromethyl)-4H-1,3-benzothiazin-4-one]				158 to 161 °C	31 ng/mL (≈ 63.9 nM)	8 ng/mL (≈ 16.5 nM)	50 ng/mL (≈ 103 nM)					
O=c1nc(N2CCN(c3cccc(C(F)(F)F)c3)CC2)sc2c([N+](=O)[O-])cc(C(F)(F)F)cc12 [Compound 3, 8-Nitro-6-(trifluoromethyl)-2-{4-[3-(trifluoromethyl)phenyl]piperazin-1-yl}-4H-1,3-benzothiazin-4-one]				201 to 203 °C	3.1 ng/mL (≈ 6.15 nM)	3.1 ng/mL (≈ 6.15 nM)	40 ng/mL (≈ 79.3 nM)					
CCN(Cc1ccccc1)c1nc(=O)c2cc(C(F)(F)F)cc([N+](=O)[O-])c2s1 [Compound 4, 2-[Benzyl(ethyl)amino]-8-nitro-6-(trifluoromethyl)-4H-1,3-benzothiazin-4-one]				94 to 97 °C	6.2 ng/mL (≈ 15.1 nM)	0.8 ng/mL (≈ 1.95 nM)	6.2 ng/mL (≈ 15.1 nM)	2 ng/mL (≈ 4.89 nM)				
CN(Cc1ccccc1)c1nc(=O)c2cc(C(F)(F)F)cc([N+](=O)[O-])c2s1 [Compound 5, 2-[Benzyl(methyl)amino]-8-nitro-6-(trifluoromethyl)-4H-1,3-benzothiazin-4-one]				120 to 124 °C	15.6 ng/mL (≈ 39.5 nM)	0.5 ng/mL (≈ 1.26 nM)	15.6 ng/mL (≈ 39.5 nM)	3 ng/mL (≈ 7.59 nM)	3120 ng/mL (≈ 7890 nM)	1560 ng/mL (≈ 3950 nM)		
O=c1nc(N2CCN(c3ccccc3F)CC2)sc2c([N+](=O)[O-])cc(C(F)(F)F)cc12 [Compound 6, 2-[4-(2-Fluorophenyl)piperazin-1-yl]-8-nitro-6-(trifluoromethyl)-4H-1,3-benzothiazin-4-one]				164 to 168 °C	5 ng/mL (≈ 11 nM)	5 ng/mL (≈ 11 nM)	5 ng/mL (≈ 11 nM)					
O=c1nc(N2CCN(Cc3ccccc3)CC2)sc2c([N+](=O)[O-])cc(C(F)(F)F)cc12 [Compound 7, 2-(4-Benzylpiperazin-1-yl)-8-nitro-6-(trifluoromethyl)-4H-1,3-benzothiazin-4-one]				161 to 163 °C	50 ng/mL (≈ 111 nM)	50 ng/mL (≈ 111 nM)	50 ng/mL (≈ 111 nM)					
O=c1nc(NCc2ccccc2)sc2c([N+](=O)[O-])cc(C(F)(F)F)cc12 [Compound 8, 2-(Benzylamino)-8-nitro-6-(trifluoromethyl)-4H-1,3-benzothiazin-4-one]				192 to 194 °C	0.78 ng/mL (≈ 2.05 nM)	< 0.0121 ng/mL	0.78 ng/mL (≈ 2.05 nM)	50 ng/mL (≈ 131 nM)	1560 ng/mL (≈ 4090 nM)	1560 ng/mL (≈ 4090 nM)		
C[C@H](c1ccccc1)N(C)c1nc(=O)c2cc(C(F)(F)F)cc([N+](=O)[O-])c2s1 [Compound 9, 2-{Methyl[(1R)-1-phenylethyl]amino}-8-nitro-6-(trifluoromethyl)-4H-1,3-benzothiazin-4-one]				110 to 113 °C	< 0.0121 ng/mL	< 0.0121 ng/mL	< 0.0121 ng/mL	0.4 ng/mL (≈ 0.977 nM)				
CN(Cc1ccccc1)c1nc(=O)c2cc(Cl)cc([N+](=O)[O-])c2s1 [Compound 10, 2-[Benzyl(methyl)amino]-6-chloro-8-nitro-4H-1,3-benzothiazin-4-one]				138 to 141 °C	1.56 ng/mL (≈ 4.31 nM)	0.31 ng/mL (≈ 0.857 nM)	6.2 ng/mL (≈ 17.1 nM)	25 ng/mL (≈ 69.1 nM)			< 390 ng/mL	780 ng/mL (≈ 2160 nM)
NNC(=O)c1ccncc1 [Isoniazid (INH), Isoniazid, reference compound]								125 ng/mL (≈ 911 nM)			780 ng/mL (≈ 5690 nM)	1560 ng/mL (≈ 11400 nM)
